Laboratory results from patent US9000153B2, “Imidazo[4,5-c]quinolines as DNA-PK inhibitors” (Merck Patent GmbH, priority 2010, dated 2015).

What follows are compounds tested against DNA-PK (Homo sapiens (Human), UniProt P78527) (assay: DNA-PK/biochemical assay (FlashPlate kinase assay)). Settings: 5 μM ATP, 90 min, room temperature.
Experimental: The kinase assay was carried out in streptavidin-coated […] microtitre FlashPlates®. To this end, 1.5 μg of the DNA-PK/protein complex and 100 ng of biotinylated substrate, such as, for example, PESQEAFADLWKK biotin-NH2 (“biotin-DNA-PK peptide”), in a total volume of 36.5 μl (34.25 mM HEPES/KOH, 7.85 mM Tris-HCl, 68.5 mM KCl, 5 μM ATP, 6.85 mM MgCl2, 0.5 mM EDTA, 0.14 mM EGTA, 0.69 mM DTT, pH 7.4), were incubated at room temperature for 90 min with 500 ng of DNA from calf thymus, 0.1 μCi of 33P-ATP and 1.8% of DMSO per well with or without the test compound. The reaction was stopped using 50 μl/well of 200 mM EDTA. After incubation for a further 30 min at room temperature, the liquid was removed. Each well was washed three times with 100 μl of 0.9% sodium chloride solution. A non-specific reaction (blank value) was determined using 10 μM of a proprietary kinase inhibitor. The radioactivity measurement was carried out by means of a TopCount. IC50 values were calculated in RS1 (Kashishian et al. (2003) Molecular Cancer Therapeutics 1257).

`COc1cc2ncc3[nH]c(=O)n(-c4ccc(C#N)cc4)c3c2cc1OC` [Compound 1, 4-(7,8-Dimethoxy-2-oxo-2,3-dihydroimidazo[4,5-c]quinolin-1-yl)benzonitrile] and `COc1cc2ncc3c(c2cc1OC)n(-c1ccc(C#N)cc1)c(=O)n3C` [Compound 2, 4-(7,8-Dimethoxy-3-methyl-2-oxo-2,3-dihydroimidazo-[4,5-c]quinolin-1-yl)-benzonitrile] cannot be ordered by IC50: under 100 nM for the first, under 100 nM for the second.

`COc1cc2ncc3c(c2cc1O)n(-c1ccc(C#N)cc1)c(=O)n3C` [Compound 3, 4-(8-Hydroxy-7-methoxy-3-methyl-2-oxo-2,3-dihydro-imidazo[4,5-c]quinolin-1-yl)-benzonitrile] and `COc1cc2ncc3c(c2cc1O)n(-c1ccc(C#N)cc1F)c(=O)n3C` [Compound 4, 3-Fluoro-4-(8-hydroxy-7-methoxy-3-methyl-2-oxo-2,3-dihydroimidazo[4,5-c]quinolin-1-yl)benzonitrile] cannot be ordered by IC50: under 100 nM for the first, under 100 nM for the second.

`COc1cc2ncc3c(c2cc1O)n(-c1c(F)cc(C#N)cc1F)c(=O)n3C` [Compound 5, 3,5-Difluoro-4-(8-hydroxy-7-methoxy-3-methyl-2-oxo-2,3-dihydroimidazo[4,5-c]quinolin-1-yl)benzonitrile] and `COc1cc2ncc3c(c2cc1OCc1ccsc1)n(-c1c(F)cc(C#N)cc1F)c(=O)n3C` [Compound 26, 3,5-Difluoro-4-(7-methoxy-3-methyl-2-oxo-8-(thiophen-3-ylmethoxy)-2,3-dihydroimidazo-[4,5-c]quinolin-1-yl)benzonitrile] cannot be ordered by IC50: under 100 nM for the first, under 100 nM for the second.

`COc1cc2ncc3[nH]c(=O)n(-c4ccc(C#N)cc4)c3c2cc1OCc1ccccc1` [Compound 6, 4-(8-Benzyloxy-7-methoxy-2-oxo-2,3-dihydroimidazo-[4,5-c]quinolin-1-yl)-benzonitrile] and `COc1cc2ncc3c(c2cc1OCc1ccccc1)n(-c1ccc(C#N)cc1)c(=O)n3C` [Compound 7, 4-(8-Benzyloxy-7-methoxy-3-methyl-2-oxo-2,3-dihydro-imidazo[4,5-c]quinolin-1-yl)-benzonitrile] cannot be ordered by IC50: under 100 nM for the first, under 100 nM for the second.

`COc1cc2ncc3[nH]c(=O)n(-c4ccc(C#N)cc4F)c3c2cc1OCc1ccccc1` [Compound 8, 4-(8-Benzyloxy-7-methoxy-2-oxo-2,3-dihydroimidazo-[4,5-c]quinolin-1-yl)-3-fluorobenzonitrile] and `COc1cc2ncc3c(c2cc1OCc1ccccc1)n(-c1ccc(C#N)cc1F)c(=O)n3C` [Compound 9, 4-(8-Benzyloxy-7-methoxy-3-methyl-2-oxo-2,3-dihydro-imidazo[4,5-c]quinolin-1-yl)-3-fluorobenzonitrile] cannot be ordered by IC50: under 100 nM for the first, under 100 nM for the second.

`COc1cc2ncc3[nH]c(=O)n(-c4c(F)cc(C#N)cc4F)c3c2cc1OCc1ccccc1` [Compound 10, 4-(8-Benzyloxy-7-methoxy-2-oxo-2,3-dihydroimidazo-[4,5-c]quinolin-1-yl)-3,5-difluorobenzonitrile] and `COc1cc2ncc3c(c2cc1OCc1ccccc1)n(-c1c(F)cc(C#N)cc1F)c(=O)n3C` [Compound 11, 4-(8-Benzyloxy-7-methoxy-3-methyl-2-oxo-2,3-dihydro-imidazo[4,5-c]quinolin-1-yl)-3,5-difluorobenzonitrile] cannot be ordered by IC50: under 100 nM for the first, under 100 nM for the second.

`COC(=O)n1c(=O)n(-c2ccc(C#N)cc2F)c2c3cc(OCc4ccccc4)c(OC)cc3ncc21` [Compound 12, Methyl 8-benzyloxy-1-(4-cyano-2-fluorophenyl)-7-methoxy-2-oxo-1,2-dihydroimidazo[4,5-c]-quinoline-3-carboxylate] and `COc1cc2ncc3c(c2cc1OCc1ccccc1Br)n(-c1ccc(C#N)cc1F)c(=O)n3C` [Compound 21, 4-[8-(2-Bromobenzyloxy)-7-methoxy-3-methyl-2-oxo-2,3-dihydroimidazo[4,5-c]quinolin-1-yl]-3-fluorobenzonitrile] cannot be ordered by IC50: under 100 nM for the first, under 100 nM for the second.

`COc1cc2ncc3c(c2cc1OCc1ccsc1)n(-c1ccc(C#N)cc1F)c(=O)n3C` [Compound 13, 3-Fluoro-4-(7-methoxy-3-methyl-2-oxo-8-(thiophen-3-ylmethoxy)-2,3-dihydroimidazo[4,5-c]-quinolin-1-yl)benzonitrile] and `COc1cc2ncc3c(c2cc1OCc1cccs1)n(-c1ccc(C#N)cc1F)c(=O)n3C` [Compound 14, 3-Fluoro-4-(7-methoxy-3-methyl-2-oxo-8-(thiophen-2-ylmethoxy)-2,3-dihydroimidazo[4,5-c]-quinolin-1-yl)benzonitrile] cannot be ordered by IC50: under 100 nM for the first, under 100 nM for the second.

Compared with `COc1cc2ncc3c(c2cc1OC(C(N)=O)c1ccc(F)cc1)n(-c1ccc(C#N)cc1F)c(=O)n3C` (stereo not shown) [Compound 15, 2-[1-(4-Cyano-2-fluorophenyl)-7-methoxy-3-methyl-2-oxo-2,3-dihydro-1H-imidazo[4,5-c]-quinolin-8-yloxy]-2-(4-fluoro-phenyl)acetamide], `COc1cc2ncc3c(c2cc1OC(CN)c1ccc(F)cc1)n(-c1ccc(C#N)cc1F)c(=O)n3C` (stereo not shown) [Compound 32, 4-{8-[2-Amino-1-(4-fluorophenyl)ethoxy]-7-methoxy-3-methyl-2-oxo-2,3-dihydro-imidazo[4,5-c]quinolin-1-yl}-3-fluorobenzonitrile] is higher in IC50: under 100 nM for the first, 500 to 1000 nM for the second.

Compared with `COCCNC(=O)C(Oc1cc2c(cc1OC)ncc1c2n(-c2ccc(C#N)cc2F)c(=O)n1C)c1ccc(F)cc1` (stereo not shown) [Compound 16, 2-[1-(4-Cyano-2-fluorophenyl)-7-methoxy-3-methyl-2-oxo-2,3-dihydro-1H-imidazo[4,5-c]-quinolin-8-yloxy]-2-(4-fluoro-phenyl)-N-(2-methoxyethyl)-acetamide], `COc1cc2ncc3c(c2cc1OCc1ccc(F)cc1)n(-c1ccc(C#N)cc1F)c(=O)n3C` [Compound 17, 3-Fluoro-4-[8-(4-fluoro-benzyloxy)-7-methoxy-3-methyl-2-oxo-2,3-dihydro-imidazo[4,5-c]quinolin-1-yl]-benzonitrile] is lower in IC50: 100 to 500 nM for the first, under 100 nM for the second.

`COc1cc2ncc3c(c2cc1OC(C(N)=O)c1ccccc1)n(-c1ccc(C#N)cc1F)c(=O)n3C` (stereo not shown) [Compound 18, 2-[1-(4-Cyano-2-fluorophenyl)-7-methoxy-3-methyl-2-oxo-2,3-dihydro-1H-imidazo[4,5-c]-quinolin-8-yloxy]-2-phenyl-acetamide] and `COc1cc2ncc3c(c2cc1OC(C(N)=O)c1ccc(F)cc1)n(-c1c(F)cc(C#N)cc1F)c(=O)n3C` (stereo not shown) [Compound 25, 2-[1-(4-Cyano-2,6-difluoro-phenyl)-7-methoxy-3-methyl-2-oxo-2,3-dihydro-1H-imidazo-[4,5-c]quinolin-8-yloxy]-2-(4-fluorophenyl)acetamide] cannot be ordered by IC50: under 100 nM for the first, under 100 nM for the second.

First: COc1cc2ncc3c(c2cc1OCc1sccc1S(=O)(=O)N1CCOCC1)n(-c1ccc(C#N)cc1F)c(=O)n3C [Compound 19, 3-Fluoro-4-{7-methoxy-3-methyl-8-[3-(morpholine-4-sulfonyl)-thiophen-2-ylmethoxy]-2-oxo-2,3-dihydro-1H-imidazo[4,5-c]-quinolin-1-yl}benzonitrile]
Second: COc1cc2ncc3c(c2cc1OCc1cncs1)n(-c1ccc(C#N)cc1F)c(=O)n3C [Compound 30, 3-Fluoro-4-[7-methoxy-3-methyl-2-oxo-8-(thiazol-5-ylmethoxy)-2,3-dihydroimidazo[4,5-c]-quinolin-1-yl)benzonitrile]
The IC50 of the first is higher: 100 to 500 nM for the first, under 100 nM for the second. The second is the more potent here.

`COc1cc2ncc3c(c2cc1OCc1ccncc1)n(-c1ccc(C#N)cc1F)c(=O)n3C` [Compound 20, 3-Fluoro-4-[7-methoxy-3-methyl-2-oxo-8-(pyridin-4-ylmethoxy)-2,3-dihydroimidazo[4,5-c]-quinolin-1-yl]benzonitrile] and `COc1cc2ncc3c(c2cc1OCc1ccc(F)c(Cl)c1)n(-c1ccc(C#N)cc1F)c(=O)n3C` [Compound 24, 4-[8-(3-Chloro-4-fluorobenzyloxy)-7-methoxy-3-methyl-2-oxo-2,3-dihydro-imidazo[4,5-c]quinolin-1-yl]-3-fluorobenzonitrile] cannot be ordered by IC50: under 100 nM for the first, under 100 nM for the second.

`COc1cc2ncc3c(c2cc1OCc1ccc(F)cc1Br)n(-c1ccc(C#N)cc1F)c(=O)n3C` [Compound 22, 4-[8-(2-Bromo-4-fluorobenzyloxy)-7-methoxy-3-methyl-2-oxo-2,3-clihydro-imidazo[4,5-c]quinolin-1-yl]-3-fluorobenzonitrile] and `COc1cc2ncc3c(c2cc1OCc1ccc(F)cc1Cl)n(-c1ccc(C#N)cc1F)c(=O)n3C` [Compound 23, 4-[8-(2-Chloro-4-fluorobenzyloxy)-7-methoxy-3-methyl-2-oxo-2,3-dihydro-imidazo[4,5-c]quinolin-1-yl]-3-fluorobenzonitrile] cannot be ordered by IC50: under 100 nM for the first, under 100 nM for the second.

`COc1cc2ncc3c(c2cc1OCc1ccc(F)cc1)n(-c1c(F)cc(C#N)cc1F)c(=O)n3C` [Compound 27, 3,5-Difluoro-4-[8-(4-fluoro-benzyloxy)-7-methoxy-3-methyl-2-oxo-2,3-dihydroimidazo-[4,5-c]quinolin-1-yl]benzonitrile] and `COc1cc2ncc3c(c2cc1OCc1cccs1)n(-c1c(F)cc(C#N)cc1F)c(=O)n3C` [Compound 28, 3,5-Difluoro-4-(7-methoxy-3-methyl-2-oxo-8-(thiophen-2-ylmethoxy)-2,3-dihydroimidazo-[4,5-c]quinolin-1-yl)benzonitrile] cannot be ordered by IC50: under 100 nM for the first, under 100 nM for the second.

In the case of `COc1cc2ncc3c(c2cc1OC(CN)c1cccs1)n(-c1ccc(C#N)cc1F)c(=O)n3C` (stereo not shown) [Compound 31, 4-[8-(2-Amino-1-thiophen-2-ylethoxy)-7-methoxy-3-methyl-2-oxo-2,3-dihydroimidazo-[4,5-c]quinolin-1-yl]-3-fluorobenzonitrile], the IC50 is reported as 100 to 500 nM.
